Results on three compounds are retold here after US20250152610A1, “IMIDAZOLATE GOLD COMPOUNDS FOR THE TREATMENT OF LUNG CANCER” (University of Cincinnati, priority 2022, published 2025).

Structures are written as SMILES.

In one assay the test system is GPX4. The settings on record: H522 KRAS-WT and A546 KM cells, 10 μM, 48 hours; FIG. 5A. As to the method: H522 KRAS-WT lung cancer cells and A546 KM lung cancer cells were treated with vehicle (negative control), DM20 (10 μM), CS47 (10 μM), and auranofin (1 μM, positive control) for 48 hours. Protein lysates were extracted from the cells and Western blot analysis was carried out to detect expression of TXNRD1 and GPX4 in the cell lines after treatment, with GAPDH expression detected as a control.

The subject of assay [1] is KRAS-WT lung cancer cells (H1395, H522, H661, H1993, H332, H820) versus KM lung cancer cells (H157, H1264, H2122, H460, A549). Nature of the assay: MTT cell viability assay on panel of KRAS-WT and KM lung cancer cell lines. Format: cell-based, human. The settings on record: 1 nM to 100 μM; FIGS. 3A-3F; unpaired t test. As to the method:
Experiments were carried out to determine whether DM20 and CS47 are reversible TrxR inhibitors capable of triggering ferroptosis in KRAS-WT lung cancer cells. DM20 and CS47 in concentrations ranging from 1 nM to 100 μM were tested on a panel of KM and KRAS-WT cell lines in MTT cell viability assays. The tested KM cell lines included H157, H1264, H2122, H460, and A549 cells. The tested KRAS-WT cell lines included H1395, H522, H661, H1993, H332, and H820. Auranofin was included as a positive drug control and the human lung […] fibroblast cell line IMR90 was included as a normal, non-transformed cell counterpart. MTT viability and IC50 values were determined, results for which are shown in FIGS. 3A-3F, wherein each line or symbol corresponds to a human […] cell line. Statistics indicate unpaired t test with *, p<0.05, and **, p<0.01.

For assay [2], the system named is H193 and H1395 KRAS-WT lung cancer cells. The settings on record: for lipid peroxidation (oxidized C11-BODIPY) in KRAS-WT cells: 10 μM, 48 hours, FIG. 5B; for ferroptosis induction in KRAS-WT lung cancer cells (overall conclusion): taken together from Examples 1-4. How it is done: H157 and A549 KM lung cancer cells and H193 and H1395 KRAS-WT lung cancer cells were treated with vehicle (negative control), DM20 (10 μM), CS47 (10 μM), or auranofin (1 μM positive control) for 48 hours. Cells were then stained with DAP, oxidized C11-BODIPY, and reduced C11-BODIPY. C11-BODIPY is a ferroptosis lipid sensor that switches from red to green fluorescence upon oxidation.

Assay [3] has as its system H522 KRAS-WT lung cancer cells. Kind of assay: MTT cell viability rescue with ferrostatin-1, L-cysteine or NAC. Format: cell-based, human. The settings on record: 48 hours, DM20 10 μM, CS47 10 uM, auranofin 1 μM; for rescue of cell viability by ferrostatin-1 (Fer-1): FIG. 4A; for rescue of cell viability by cysteine: FIG. 4B; for rescue of cell viability by n-acetyl-cysteine (NAC): FIG. 4C. How it is done:
H522 KRAS-WT lung cancer cells were treated with DM20 (10 μM), CS47 (10 uM), or auranofin (1 μM) in combination with ferrostatin-1, L-cysteine, or n-acetyl-cysteine (all mM, 48 hours of treatment, in quadruplicate). Statistics indicate one-way ANOVA followed by Sidak's multiple comparisons analysis with ns, p>0.05; *, p<0.05: **, p<0.01; ***, p<0.001 and ****, p<0.0001.

`Clc1nc[n]([Au][PH](c2ccccc2)(c2ccccc2)c2ccccc2)c1Cl` [CS47, 4,5-dichloro-imidazolate-1yl-gold(I)-triphenylphosphane]: the “GPX4 expression after treatment (Western blot)” value with GPX4 is “depletes GPX4 expression”. Besides, the “sensitivity of KRAS-WT lung cancer cells compared with KM lung cancer cells (MTT viability, IC50)” value in assay [1] is “significantly and selectively more sensitive”. For the same compound, in assay [2], the “lipid peroxidation (oxidized C11-BODIPY) in KRAS-WT cells” value is reported as “induces lipid peroxidation” and the “ferroptosis induction in KRAS-WT lung cancer cells (overall conclusion)” value is on record as “induce ferroptosis”. Also, in assay [3], the “rescue of cell viability by ferrostatin-1 (Fer-1)” value (“rescue of cell viability … (Fer-1)” for short) is listed as “can rescue the cell viability”, the “rescue of cell viability by cysteine” value is reported as “can rescue the cell viability” and the “rescue of cell viability by n-acetyl-cysteine (NAC)” value (“rescue of cell viability … (NAC)” for short) was “can rescue the cell viability”.

`N#Cc1nc[n]([Au][PH](c2ccccc2)(c2ccccc2)c2ccccc2)c1C#N` [DM20, 4,5-dicyano-imidazolate-1yl-gold(I)-triphenylphosphane]: in the assay with GPX4, the “GPX4 expression after treatment (Western blot)” value was “depletes GPX4 expression”. In assay [1], the “sensitivity of KRAS-WT lung cancer cells compared with KM lung cancer cells (MTT viability, IC50)” value is “significantly and selectively more sensitive”. In assay [2], the “lipid peroxidation (oxidized C11-BODIPY) in KRAS-WT cells” value is “induces lipid peroxidation” and the “ferroptosis induction in KRAS-WT lung cancer cells (overall conclusion)” value is given as “induce ferroptosis”. Further, in assay [3], the “rescue of cell viability … (Fer-1)” value is recorded as “can rescue the cell viability”, the “rescue of cell viability by cysteine” value is recorded as “can rescue the cell viability” and the “rescue of cell viability … (NAC)” value is listed as “can rescue the cell viability”.

On to `CC(=O)OC[C@H]1O[C@@H]([S-])[C@H](OC(C)=O)[C@@H](OC(C)=O)[C@@H]1OC(C)=O.CCP(CC)CC.[Au+]` [auranofin, reference compound], for which the “sensitivity of KRAS-WT lung cancer cells compared with KM lung cancer cells (MTT viability, IC50)” value in assay [1] is “significantly and selectively more sensitive”. For the same compound, in assay [3], the “rescue of cell viability … (Fer-1)” value is on record as “can rescue the cell viability”, the “rescue of cell viability by cysteine” value is “can rescue the cell viability” and the “rescue of cell viability … (NAC)” value is listed as “can rescue the cell viability”.
